The test system of one assay is hemorrhaged rats. As to conditions: Gill, Pelit et al. 2011; cited from earlier work.
For the next assay, the system named is α2 adrenergic receptors. Kind of assay: Centhaquin resuscitation with and without α2 adrenergic antagonists: arterial blood hematocrit, pH, gases, electrolytes, lactate. In kind it is in vivo, rat. The note with it: hemorrhaged rats.
Another assay relates to rats in endotoxic shock. Kind of assay: Endotoxic shock induced by E. coli LPS in rats. In kind it is in vivo. The note with it: 0.05 mg/kg after LPS 30 mg/kg iv; one rat, sacrificed at the end of experiment; vehicle rat died after 270 min. The procedure: FIG. 14 illustrates the efficiency of a low dose of centhaquin citrate in the treatment of septic shock. In the tests summarized in FIG. 14, anaesthetized rats were immobilized on a surgical board and an incision was made above the femoral vein and artery. The vessels were cleaned and isolated. Heart rate and mean arterial pressure were measured by cannulating left femoral artery with pressure transducer SPR-320 (Millar Instruments), connected to a ML221 bridge amplifier (AD Instruments) through AEC-10C connector and the signals were acquired (1000 S^−) using PowerLab 16/30. Left femoral veins were secured for drug administration using PE 50 tubing (Clay Adams, Parsipanny, N.J.). Right femoral artery was cannulated for blood drawings using PE 50 tubing (Clay Adams, Parsipanny, N.J.). After completion of the surgery, animals were maintained in a steady state for 30 minutes before administration of Lipopolysaccharide (LPS). Endotoxic shock was induced by intravenous injection of E. coli LPS O111:B4 (Sigma Chemical, St. Louis, Mo.) dissolved to a concentration of 10 mg in 0.1 ml of normal saline and a dose of 30 mg/kg was administered. Resuscitation (R) was performed either with vehicle (saline) or with centhaquin citrate (0.05 mg/kg). The rat treated with vehicle has lower blood pressure compared to the rat treated with centhaquin. […]

Assay [1] deals with urethane anesthetized rats. The experiment in a line: Cardiovascular effects in urethane anesthetized rats, centhaquin vs centhaquin citrate. In kind it is in vivo, rat. As to conditions: 0.05, 0.15, 0.45 mg/kg; 60 minute period; mean blood pressure, pulse pressure, heart rate, cardiac output, stroke volume, stroke work. The procedure:
In these plots, centhaquin is tested as the free base in amounts of 0.05, 0.15, and 0.45 mg/kg. Similarly, centhaquin citrate dihydrate is tested in amounts of 0.05, 0.15, and 0.45 mg/kg. These amounts of centhaquin citrate are equivalent to 0.030, 0.089, and 0.267 mg/kg of centhaquin as the free base.

With `N=C(N)NCCCCN` [Agmatine], in the assay on hemorrhaged rats, the resuscitative effect entry is reported as “effective resuscitation agent” and the “resuscitative effect in presence of yohimbine” value was “completely blocked”. With `CCC1(c2cnc[nH]2)Cc2ccccc2C1` [atipamezole, reference compound], the “effect of the α2 adrenergic antagonist on the resuscitative effect of centhaquin” value with α2 adrenergic receptors is “completely blocked”. On the same count and under the same terms, the same measure for `COC(=O)[C@@H]1[C@H]2C[C@H]3c4[nH]c5ccccc5c4CCN3C[C@@H]2CC[C@@H]1O` [yohimbine, reference compound]: “completely blocked”. In the case of `Cc1cccc(N2CCN(CCc3ccc4ccccc4n3)CC2)c1.O=C(O)CC(O)(CC(=O)O)C(=O)O` [centhaquin citrate], the survival in the assay on rats in endotoxic shock was 360 min. For the same molecule, in assay [1], the “cardiovascular effects compared to centhaquin free base at same mg/kg dose” value was “substantially outperformed centhaquin free base”.

The values above are taken from patent publication US20150250782A1, “Methods and Compositions for Hypotensive Resuscitation” (Pharmazz, Inc., priority 2012, published 2015).
